Our source for the MIC values is patent EP0048954A2, “Beta-lactam compounds, process for the preparation thereof and intermediate products for the preparation thereof” (SAGAMI CHEMICAL RESEARCH CENTER, priority 1980, dated 1982).

What all share (assay): Antibacterial activity, minimum inhibition concentration (method of The Chemotherapy Association, Japan)
What all share (type): cell-based

One assay relates to Proteus rettgeri NIH-96. To be noted: Providencia rettgeri. From the text:
(§1) The abbreviations A to P will be used in the following Tables 2 to 8.
(§2) Test results are shown in terms of the minimum inhibition concentration (µg/mℓ.) in the following Tables 2 to 8.

In the next assay the test system is Proteus vulgaris OX-19. Particulars: Proteus vulgaris.
Excerpt: as §1, §2

Assay [1] deals with Enterobactor cloacae NCTC-9394. Particulars: strain N: Enterobactor cloacae NCTC-9394; read-out: minimum inhibition concentration. An outline of the steps:
(§3)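 MIC (µg/mℓ), Japanese Chemotherapy Assoc. standard method.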

A further assay relates to Escherichia coli NIHJ. Particulars: Escherichia coli, strain K: Escherichia coli NIHJ; read-out: minimum inhibition concentration. The essentials: as §3
For assay [2], the system named is Proteus inconstans NIH-118. Particulars: Providencia alcalifaciens. An outline of the steps: as §3
Assay [3] relates to Pseudomonas aeruginosa NCTC-10490. Particulars: Pseudomonas aeruginosa. The essentials:
as §3

For assay [4], the system named is Staphylococcus aureus 6538-P. The essentials:
as §3

Assay [5] concerns Bacillus subtilis ATCC 6633. To be noted: Bacillus subtilis, ATCC6633, strain B: Bacillus subtilis ATCC 6633; read-out: minimum inhibition concentration. The essentials: as §3
Assay [6] deals with Citrobactor freundii NIH-10018 -68. To be noted: strain O: Citrobactor freundii NIH-10018 -68; read-out: minimum inhibition concentration. The essentials:
as §3

The subject of another assay is Escherichia coli NIHJC-2. To be noted: Escherichia coli, NIHJC2, strain L: Escherichia coli NIHJC-2; read-out: minimum inhibition concentration. The essentials: as §3
The next assay deals with Klebsiella pneumoniae. Particulars: Klebsiella pneumoniae, strain C: Klebsiella pneumoniae; read-out: minimum inhibition concentration. The essentials: as §3
Assay [7] deals with Proteus mirabillis B-30-2 IFO-3849. Particulars: strain G: Proteus mirabillis B-30-2 IFO-3849; read-out: minimum inhibition concentration. The essentials:
as §3

In a further assay the test system is Proteus morgani Kono. To be noted: strain J: Proteus morgani Kono; read-out: minimum inhibition concentration. An outline of the steps:
as §3

The subject of assay [8] is Salmonella typhimurium 3173. To be noted: Salmonella enterica, TYPHIMURIUM, strain D: Salmonella typhimurium 3173; read-out: minimum inhibition concentration. The essentials:
as §3

For the next assay, the system named is Serratia marcescens 1023. Particulars: Serratia marcescens, 1023, strain E: Serratia marcescens 1023; read-out: minimum inhibition concentration. An outline of the steps: as §3
Assay [9] deals with Serratia marcescens IFO-3736. Particulars: Serratia marcescens, IFO3736, strain F: Serratia marcescens IFO-3736; read-out: minimum inhibition concentration. An outline of the steps:
as §3

[10] abbreviates: NIH96, strain I: Proteus rettgeri NIH-96, read-out: minimum inhibition concentration.
[11] abbreviates: OX19, strain H: Proteus vulgaris OX-19, read-out: minimum inhibition concentration.
[12] abbreviates: NCTC10490, strain M: Pseudomonas aeruginosa NCTC-10490, read-out: minimum inhibition concentration.
The mark [13] stands for this setting: strain A: Staphylococcus aureus 6538-P, read-out: minimum inhibition concentration.
Where [14] appears, read: NIH118, strain P: Proteus inconstans NIH-118, read-out: minimum inhibition concentration.

Molecules are shown by their SMILES. Converted amounts (≈) assume the structure as drawn. Counter-ions that a name gives are not always drawn. Like-named read-outs stand apart in the source and are kept apart here.

On to `CC(=O)OCC1=C(C(=O)O)N2C(=O)C(NC(=O)Cc3cccs3)C2SC1` (stereo not shown) [Cephalo-thin Na salt, reference compound], for which the MIC with Proteus rettgeri NIH-96 (NIH96, read-out: minimum inhibition concentration, strain I: Proteus rettgeri NIH-96) is over 100 µg/mL; with Proteus vulgaris OX-19 (OX19, read-out: minimum inhibition concentration, strain H: Proteus vulgaris OX-19), over 100 µg/mL; in [1], over 100 µg/mL; in the assay on Escherichia coli NIHJ, 25 µg/mL; in [2] (NIH118, read-out: minimum inhibition concentration), over 100 µg/mL; in [3] (NCTC10490, read-out: minimum inhibition concentration), over 100 µg/mL. For the same molecule, the MIC in assay [4] (Staphylococcus aureus, 6538P, read-out: minimum inhibition concentration, strain A: Staphylococcus aureus 6538-P) worked out at 0.1 µg/mL.
Consider `Cn1nnnc1SCC1=C(C(=O)O)N2C(=O)C(NC(=O)C(=C(Cl)Cl)c3ccsc3)C2SC1` (stereo not drawn) [Compound 35, 7-[2-dichloromethylene-2-(3-thienyl)acetamido]-3-(l-methyl-lH-tetrazol-5-yl)thiomethyl-3-cephem-4-carboxylic acid], for which the MIC was found to be 0.1 µg/mL (≈ 0.187 µM) in the assay on Proteus rettgeri NIH-96 (setting [10]); 25 µg/mL (≈ 46.9 µM) in the assay on Proteus vulgaris OX-19 (setting [11]); 3.12 µg/mL (≈ 5.86 µM) in assay [5]; 100 µg/mL (≈ 187 µM) in [6]; 12.5 µg/mL (≈ 23.4 µM) in [1]; 50 µg/mL (≈ 93.7 µM) in the assay with Escherichia coli NIHJC-2. Moreover, the MIC in the assay on Escherichia coli NIHJ is 3.12 µg/mL (≈ 5.86 µM); in the assay with Klebsiella pneumoniae, 50 µg/mL (≈ 93.7 µM); in [7] it was 100 µg/mL (≈ 187 µM); with Proteus morgani Kono, over 100 µg/mL; in [3] (setting [12]), 12.5 µg/mL (≈ 23.4 µM); in assay [8], 25 µg/mL (≈ 46.9 µM). In addition, the MIC with Serratia marcescens 1023 amounted to 3.12 µg/mL (≈ 5.86 µM); in assay [9], 100 µg/mL (≈ 187 µM); in assay [4] (setting [13]), 0.2 µg/mL (≈ 0.375 µM).
With `CC(=O)OCC1=C(C(=O)O)N2C(=O)C(NC(=O)C(=C(Cl)Cl)c3cccn3C)[C@H]2SC1` (stereo partly shown) [Compound 36, 7-[2-dichloromethylene-2-(1-methyl-2-pyrrolyl)acetamido]-3-acetoxymethyl-3-cephem-4-carboxylic acid], the MIC is 1.56 µg/mL (≈ 3.29 µM) in the assay with Proteus rettgeri NIH-96 (setting [10]); 50 µg/mL (≈ 105 µM) with Proteus vulgaris OX-19 (setting [11]); 12.5 µg/mL (≈ 26.4 µM) in assay [5]; over 100 µg/mL in [6]; over 100 µg/mL in assay [1]; over 100 µg/mL in the assay with Escherichia coli NIHJC-2. The MIC in the assay with Escherichia coli NIHJ is 50 µg/mL (≈ 105 µM); in the assay on Klebsiella pneumoniae it was over 100 µg/mL; in assay [7], over 100 µg/mL; in the assay on Proteus morgani Kono, over 100 µg/mL; in [3] (setting [12]), over 100 µg/mL; in [8], over 100 µg/mL. For the same molecule, the MIC with Serratia marcescens 1023 is 100 µg/mL (≈ 211 µM); in assay [9], over 100 µg/mL; in assay [4] (setting [13]), 0.78 µg/mL (≈ 1.64 µM).
Consider `CC1(C)S[C@@H]2C(NC(=O)C(=C(Cl)Cl)c3cccs3)C(=O)N2[C@H]1C(=O)O` (stereo partly shown) [Compound 37, 6-[2-dichloromethylene-2-(2-thienyl)acetamido]-penicillanic acid], for which the MIC was 0.25 µg/mL (≈ 0.593 µM) in the assay on Proteus rettgeri NIH-96 (setting [10]); 50 µg/mL (≈ 119 µM) in the assay on Proteus vulgaris OX-19 (setting [11]); 1.56 µg/mL (≈ 3.7 µM) in assay [5]; over 100 µg/mL in assay [6]; 100 µg/mL (≈ 237 µM) in assay [1]; over 100 µg/mL in the assay on Escherichia coli NIHJC-2. The MIC with Escherichia coli NIHJ is 0.78 µg/mL (≈ 1.85 µM); with Klebsiella pneumoniae, over 100 µg/mL; in assay [7], over 100 µg/mL; in the assay with Proteus morgani Kono, over 100 µg/mL; in assay [3] (setting [12]) it was 6.25 µg/mL (≈ 14.8 µM); in assay [8], over 100 µg/mL. In addition, the MIC with Serratia marcescens 1023 was 0.05 µg/mL (≈ 0.119 µM); in [9], over 100 µg/mL; in [4] (setting [13]), 0.1 µg/mL (≈ 0.237 µM).
As to `Cn1nnnc1SCC1=C(C(=O)O)N2C(=O)C(NC(=O)C(=C(Cl)Cl)c3cccs3)C2SC1` (stereo not drawn) [Compound 39, 7-[2-dichloromethylene-2-(2-thienyl)acetamido]-3-(l-methyl-lH-tetrazol-5-yl)thiomethyl-3-cephem-4-carboxylic acid], the MIC in the assay on Proteus rettgeri NIH-96 (setting [10]) is 0.05 µg/mL (≈ 0.0937 µM); in the assay with Proteus vulgaris OX-19 (setting [11]) it was 50 µg/mL (≈ 93.7 µM); in assay [1] it was 12.5 µg/mL (≈ 23.4 µM); with Escherichia coli NIHJ it was 0.39 µg/mL (≈ 0.731 µM); in assay [2] (setting [14]), 3.12 µg/mL (≈ 5.86 µM); in [3] (setting [12]) it was 6.25 µg/mL (≈ 11.7 µM). Moreover, the MIC in assay [4] (setting [13]) amounted to 0.2 µg/mL (≈ 0.375 µM).
Consider `CC(=O)OCC1=C(C(=O)O)N2C(=O)C(NC(=O)C(=C(Cl)Cl)c3ccsc3)[C@H]2SC1` (stereo partly shown) [Compound 40, 7-[2-dichloromethylene-2-(3-thienyl)acetamido]-3-acetoxymethyl-3-cephem-4-carboxylic acid], for which the MIC was 0.39 µg/mL (≈ 0.817 µM) in the assay with Proteus rettgeri NIH-96 (setting [10]); 25 µg/mL (≈ 52.4 µM) in the assay with Proteus vulgaris OX-19 (setting [11]); 100 µg/mL (≈ 209 µM) in [1]; 1.56 µg/mL (≈ 3.27 µM) with Escherichia coli NIHJ; 25 µg/mL (≈ 52.4 µM) in assay [2] (setting [14]); 25 µg/mL (≈ 52.4 µM) in assay [3] (setting [12]). For the same molecule, in assay [4] (setting [13]), the MIC was 0.39 µg/mL (≈ 0.817 µM).
Turning to `CC(=O)OCC1=C(C(=O)O)N2C(=O)C(NC(=O)C(=C(Cl)Cl)c3cccs3)[C@H]2SC1` (stereo partly shown) [Compound 41, 7-[2-dichloromethylene-2-(2-thienyl)acetamido]-3-acetoxymethyl-3-cephem-4-carboxylic acid], the MIC with Proteus rettgeri NIH-96 (setting [10]) is 50 µg/mL (≈ 105 µM); with Proteus vulgaris OX-19 (setting [11]), 0.39 µg/mL (≈ 0.817 µM); in [1], 50 µg/mL (≈ 105 µM); in the assay with Escherichia coli NIHJ it was 0.39 µg/mL (≈ 0.817 µM); in assay [2] (setting [14]) it was 1.56 µg/mL (≈ 3.27 µM); in assay [3] (setting [12]), 25 µg/mL (≈ 52.4 µM). Further, the MIC in assay [4] (setting [13]) is 0.2 µg/mL (≈ 0.419 µM).
